Source: article PMC4411898, “Impact of kinesin Eg5 inhibition by 3,4-dihydropyrimidin-2(1H)-one derivatives on various breast cancer cell features” (BMC Cancer, 2015)
Where two headings read alike, the source gives them in different places.

How the values were obtained:
MDA-MB-231 cells [1] = assay: Apoptosis and necrosis assay (Annexin-V/PI flow cytometry), MDA-MB-231; assay type: cell-based, human; conditions: 72 h; 4m 1.0 mM, 4bt 0.8 mM, 4p 0.4 mM, 4bc 1.0 mM, 4x 0.8 mM
Description: (§1) For proliferation assays, cells were treated with IC50 concentrations of each compound. Adherent and floating cells were harvested at the same tube and pelleted by centrifugation at 300 g for 5 minutes and stained. Data acquisition of these two fractions put together was performed on a FACSCalibur flow cytometer using CellQuest software and analysed using the FloJo Software. Untreated control cells and DHPMs-treated for 72 h cell samples were stained with Annexin-V-FITC or Annexin-V-Alexa Fluor® 680 and propidium iodide according to the manufacturer’s instructions.

[2] = system: Fibroblasts (primary culture from healthy human dental pulp)
Description: MCF-7 cell line and primary culture of connective tissue cells were provided by the Laboratory of Morphology, University of Brasília (Brasília, BR). MDA-MB-231 cells were purchased from Rio de Janeiro Cell Bank (RJCB - Rio de Janeiro, BR). Cell line characterization and authentication was conducted by RJCB using short tandem repeat profiling. Primary culture cells were taken from healthy human dental pulp predominantly consisting of fibroblasts and were used as normal control cells. MCF-7 cells and fibroblasts were grown in complete DMEM and maintained at 37°C with 5% CO2. MDA-MB-231 cells were grown in Leibovitz L15 medium at 37°C without CO2. Culture media were supplemented with 10% fetal bovine serum and 25 μg/mL of gentamicin.
Cytotoxicity was determined using 3-(4,5-dimethylthiazol-2-yl)-2,5-diphenylterazolium bromide (MTT) according to the manufacturer’s instructions. Absorbance readings were measured by a spectrophotometer. Cell viability was normalized to control (vehicle only).

HUVEC cells = assay: HUVEC tube formation assay; assay type: cell-based, human; conditions: 11 h; 30 μM, IC50 or 300 μM, mainly 300 μM
Description: The anti-angiogenic potential of DHPMs was tested using an in vitro Angiogenesis Assay Kit according to the manufacturer’s instructions. […] These plates were incubated for 11 hours at 37°C, in 5% CO2. Wells were subsequently photographed using an inverted light microscope at 20x magnification and tube formation analyzed. Seven fields per group of 3 independent experiments were quantified by pattern recognition according to manufacturer’s instructions.

MCF-7 cells [3] = assay: Cell cycle analysis (PI), MCF-7; assay type: cell-based, human; conditions: 4m 1 mM, 4bt 0.8 mM, 4p 0.4 mM, 4bc 1.0 mM, 4x 0.8 mM
Description: For proliferation assays, cells were treated with IC50 concentrations of each compound. Adherent and floating cells were harvested at the same tube and pelleted by centrifugation at 300 g for 5 minutes and stained. Data acquisition of these two fractions put together was performed on a FACSCalibur flow cytometer using CellQuest software and analysed using the FloJo Software. Control and DHPM-treated cells were harvested at 24, 48 and 72 h, resuspended in ice-cold PBS and fixed with 70% ethanol on ice. Cells were then washed with PBS, harvested and incubated with propidium iodide solution (0.1% Triton X-100, 10 μg/mL propidium iodide, 100 μg/mL DNase free RNase) for 10 min at 37°C. For analysis of cell populations in each cell cycle phase, the sub-G1 picks were excluded and the plots were generated by cell cycle platform data analysis by the FlowJo Software.

MCF-7 cells [4] = assay: CD44+/CD24- expression analysis, MCF-7; assay type: cell-based, human; conditions: 24 h; for CD44-/CD24- subpopulation, MCF-7 (mean ± SEM): 4m 1.0 mM, 4bt 0.8 mM, 4p 0.4 mM, 4bc 1.0 mM, 4x 0.8 mM, monastrol 1.0 mM; for CD44+/CD24+ subpopulation, MCF-7 (mean ± SEM) / CD44-/CD24+ subpopulation, MCF-7 (mean ± SEM) / CD44+/CD24- subpopulation, MCF-7 (mean ± SEM): concentrations as E28; for CD44+/CD24- subpopulation, MCF-7 (mean ± SEM): control 0.38 ± 0.18
Description: (§2) For proliferation assays, cells were treated with IC50 concentrations of each compound. Adherent and floating cells were harvested at the same tube and pelleted by centrifugation at 300 g for 5 minutes and stained. Data acquisition of these two fractions put together was performed on a FACSCalibur flow cytometer using CellQuest software and analysed using the FloJo Software. Expression level of CD44 and CD24 in treated and control MCF-7 or MDA-MB-231 cells was measured after 24 h of treatment.

MCF-7 cells [5] = assay: α-tubulin immunostaining, spindle formation; assay type: cell-based, human; conditions: for Monoastral Spindle (%) 24 h / Bipolar Spindle (%) 24 h / Bipolar Spindle (%) 48 h / Monoastral Spindle (%) 48 h: n = 300 dividing cells; for Monoastral Spindle (%) 24 h: monastrol 0.1 mM; for Bipolar Spindle (%) 24 h / Bipolar Spindle (%) 48 h / Monoastral Spindle (%) 48 h: concentrations as E14; for Bipolar Spindle (%) 48 h / Monoastral Spindle (%) 48 h: MCF-7, 48 h
Description: Aliquots of 7 × 10^4 MCF-7 cells were seeded onto 12 mm round glass coverslips placed in the base of each well of a 24-well plate. After adhesion, cells were treated for 24 and 48 h with the pre-selected compounds at their maximum non-cytotoxic concentrations to normal cells or incubated with culture medium only for the same duration (negative control). Cells were washed with PBS, fixed with 3.7% formaldehyde, permeabilized with 0.1% Triton X-100 and blocked in PBS supplemented with 1% skimmed milk, 2.5% bovine serum albumin (BSA) and 8% fetal bovine serum (FBS) at room temperature. Cells were incubated overnight with mouse anti-α-tubulin antibody (1:500) at 4°C, followed by incubation with a secondary antibody: Alexa Fluor 488 rabbit anti-mouse IgG (1:400), for 1 hour at 37°C. Nuclei were stained with 300 nM DAPI. The coverslips were mounted with ProLong Gold Antifade and specimens observed under a laser scanning confocal microscope.
Table S1. Quantification of monopolar spindles occurred as a result of treatment with DHPM derivatives. MCF-7 control cells or cells treated for 24 or 48 h with 4m (1 mM), […]
antibody. The percentage of dividing cells showing presence of monoastral and bipolar spinles formation determined (n = 300).
Experimental Group Monoastral Spindle (%) Bipolar Spindle (%)

MCF-7 cells [6] = assay: Apoptosis and necrosis assay (Annexin-V/PI flow cytometry), MCF-7; assay type: cell-based, human; conditions: 72 h; 4m 1.0 mM, 4bt 0.8 mM, 4p 0.4 mM, 4bc 1.0 mM, 4x 0.8 mM
Description: as §1

MDA-MB-231 cells [7] = assay: MTT cell viability assay, MDA-MB-231; assay type: cell-based, human; conditions: for IC50: Homo sapiens, read-out: IC50 MDA-MB-231
Description: (§3) Absorbance readings were measured by a spectrophotometer. Cell viability was normalized to control (vehicle only).

MCF-7 cells [8] = assay: Morphological alterations under inverted light microscope, MCF-7; assay type: cell-based, human; conditions: 72 h, maximum non-cytotoxic concentration to normal cells
Description: Figure 2 DHPM derivatives cause severe morphological alterations on breast cancer cells. MCF-7 and MDA-MB-231 cells were treated with the maximum non-cytotoxic concentration to normal cells for 72 h and morphological alterations analyzed under an inverted light microscope. Cells with elongated morphology, adherent to the surface and normal size are shown by arrows. Cells with size reduction, absence of focal adhesion points, rounded morphology and detached from the surface where they had been seeded are shown by arrowheads.

MCF-7 cells [9] = assay: MTT cell viability assay, MCF-7; assay type: cell-based, human; conditions: for IC50: Homo sapiens, read-out: IC50 MCF-7
Description: as §3

MDA-MB-231 cells [10] = assay: CD44+/CD24- expression analysis, MDA-MB-231; assay type: cell-based, human; conditions: 24 h; for CD44-/CD24- subpopulation, MDA-MB-231 (mean ± SEM): 4m 1.0 mM, 4bt 0.8 mM, 4p 0.4 mM, 4bc 1.0 mM, 4x 0.8 mM, monastrol 1.0 mM; for CD44+/CD24+ subpopulation, MDA-MB-231 (mean ± SEM): control 1.507 ± 0.47
Description: as §2

[11] = MCF-7, 24 h, 4m 1.0 mM, 4bt 0.8 mM, 4p 0.4 mM, 4bc 1.0 mM, 4x 0.8 mM
[12] = all concentrations tested 100 μM – 1.00 mM, 72 h

| Compound | CD44-/CD24- subpopulation, MCF-7 (mean ± SEM) (MCF-7 cells [4]) [%] | CD44+/CD24+ subpopulation, MCF-7 (mean ± SEM) (MCF-7 cells [4]) [%] | CD44-/CD24+ subpopulation, MCF-7 (mean ± SEM) (MCF-7 cells [4]) [%] | CD44+/CD24- subpopulation, MCF-7 (mean ± SEM) (MCF-7 cells [4]) [%] | Monoastral Spindle (%) 24 h (MCF-7 cells [5]; [11]) [%] | Bipolar Spindle (%) 24 h (MCF-7 cells [5]; MCF-7, 24 h) [%] | Bipolar Spindle (%) 48 h (MCF-7 cells [5]) [%] | Monoastral Spindle (%) 48 h (MCF-7 cells [5]) [%] | CD44-/CD24- subpopulation, MDA-MB-231 (mean ± SEM) (MDA-MB-231 cells [10]) [%] | CD44-/CD24+ subpopulation, MDA-MB-231 (mean ± SEM) (MDA-MB-231 cells [10]; concentrations as E32) [%] | CD44+/CD24+ subpopulation, MDA-MB-231 (mean ± SEM) (MDA-MB-231 cells [10]; concentrations as E32) [%] | other results |
| --- | --- | --- | --- | --- | --- | --- | --- | --- | --- | --- | --- | --- |
| CC1(C)CC(=O)C2=C(C1)NC(=S)NC2c1cccc(O)c1 (stereo not shown) [Compound 4bt, Dimethylenastron] | 3.09 ± 0.46 | 61.97 ± 19.91 | 34.92 ± 19.45 | 0.005 ± 0.005 | 99.35 | 0.65 | 20 | 80 | 0.01 ± 0.00 | 0.0 ± 0.0 | 52.14 ± 10.60 | Cell death by apoptosis, % of MDA-MB-231 cell population (MDA-MB-231 cells [1]): 83%; Maximum non-cytotoxic concentration to normal cells ([2]; fibroblasts, 72 h treatment, MTT): 0.8 mM; HUVEC tube formation (pattern recognition / morphology) (HUVEC cells): more pronounced anti-angiogenic morphological aspect; Cell cycle effect, MCF-7, 48 h (MCF-7 cells [3]): decrease of cells in G2/M and an increase of cells in S phase; Mitotic spindle / microtubule organization (α-tubulin immunostaining) (MCF-7 cells [5]; [11]): caused monoastral spindle formation; Cell death by apoptosis, % of MCF-7 cell population (MCF-7 cells [6]): 39%; IC50 (MDA-MB-231 cells [7]; MDA-MB-231, 72 h): 17.9 µM; Effect on cell viability, MDA-MB-231 (MDA-MB-231 cells [7]; [12]): significant decrease in cell viability; Morphological alterations, MCF-7 (MCF-7 cells [8]): produced the same results; IC50 (MCF-7 cells [9]; MCF7, 72 h): 127 µM; Effect on cell viability, MCF-7 (MCF-7 cells [9]; [12]): significant decrease in cell viability |
| CCOC(=O)C1=C(C)NC(=S)NC1c1cccc(O)c1 (stereo not shown) [Monastrol, reference compound] | 1.64 ± 0.43 | 29.53 ± 5.30 | 68.56 ± 5.93 | 0.2400 ± 0.20 | 97.66 | 2.33 | 8 | 92 | 0.00 ± 0.003 | 0.007 ± 0.003 | 15.56 ± 6.96 | Maximum non-cytotoxic concentration to normal cells ([2]; human, 72 h): 1.0 mM; IC50 (MDA-MB-231 cells [7]; MDA-MB-231, 72 h treatment, MTT): 114 µM; IC50 (MCF-7 cells [9]; MCF7, 72 h treatment, MTT): 110 µM; CD44+/CD24- subpopulation, MDA-MB-231 (mean ± SEM) (MDA-MB-231 cells [10]; concentrations as E32, untreated control 98.45 ± 0.47): 84.41 ± 6.97% |
